± gives the expanded uncertainty stated by the source.
Experiment: not given
Settings: 293.15 K; 101.33 kPa; Liquid; Vibrating tube method

`CCCCCCCCCCCCCC[P+](CCCCCC)(CCCCCC)CCCCCC.O=S(=O)([N-]S(=O)(=O)C(F)(F)F)C(F)(F)F` gave a mass density of 1068.87 ± 8.6 kg/m3.

Experiment: activity coefficient (dimensionless); of the first substance listed, at infinite dilution; xn = mol fraction of the nth substance listed
Settings: 313.15 K; 101 kPa; Liquid; Chromatography; x1 = 0

Point of comparison: `C=CCCCCC` [1-heptene] + CCCCCCCCCCCCCC[P+](CCCCCC)(CCCCCC)CCCCCC.O=S(=O)([N-]S(=O)(=O)C(F)(F)F)C(F)(F)F, activity coefficient 1.03 ± 0.075. Against it:
- C#CCCCCCCC [1-nonyne] + CCCCCCCCCCCCCC[P+](CCCCCC)(CCCCCC)CCCCCC.O=S(=O)([N-]S(=O)(=O)C(F)(F)F)C(F)(F)F — lower, 0.853 ± 0.063
- C=CCCCC [hex-1-ene] + CCCCCCCCCCCCCC[P+](CCCCCC)(CCCCCC)CCCCCC.O=S(=O)([N-]S(=O)(=O)C(F)(F)F)C(F)(F)F — within error, 0.907 ± 0.066
- CCCCCCCC [octane] + CCCCCCCCCCCCCC[P+](CCCCCC)(CCCCCC)CCCCCC.O=S(=O)([N-]S(=O)(=O)C(F)(F)F)C(F)(F)F — higher, 1.4 ± 0.1
- C1CCCCCC1 [cycloheptane] + CCCCCCCCCCCCCC[P+](CCCCCC)(CCCCCC)CCCCCC.O=S(=O)([N-]S(=O)(=O)C(F)(F)F)C(F)(F)F — lower, 0.87 ± 0.064
- CCCO [propan-1-ol] + CCCCCCCCCCCCCC[P+](CCCCCC)(CCCCCC)CCCCCC.O=S(=O)([N-]S(=O)(=O)C(F)(F)F)C(F)(F)F — higher, 1.28 ± 0.095
- Cc1ccccc1 [toluene] + CCCCCCCCCCCCCC[P+](CCCCCC)(CCCCCC)CCCCCC.O=S(=O)([N-]S(=O)(=O)C(F)(F)F)C(F)(F)F — lower, 0.452 ± 0.039
- CO [methanol] + CCCCCCCCCCCCCC[P+](CCCCCC)(CCCCCC)CCCCCC.O=S(=O)([N-]S(=O)(=O)C(F)(F)F)C(F)(F)F — within error, 1.08 ± 0.079
- CCCCCC [hexane] + CCCCCCCCCCCCCC[P+](CCCCCC)(CCCCCC)CCCCCC.O=S(=O)([N-]S(=O)(=O)C(F)(F)F)C(F)(F)F — within error, 1.1 ± 0.08
- C#CCCCC [1-hexyne] + CCCCCCCCCCCCCC[P+](CCCCCC)(CCCCCC)CCCCCC.O=S(=O)([N-]S(=O)(=O)C(F)(F)F)C(F)(F)F — lower, 0.693 ± 0.053
- C1CCCCCCC1 [cyclooctane] + CCCCCCCCCCCCCC[P+](CCCCCC)(CCCCCC)CCCCCC.O=S(=O)([N-]S(=O)(=O)C(F)(F)F)C(F)(F)F — within error, 0.963 ± 0.07
- CCC(C)=O [butanone] + CCCCCCCCCCCCCC[P+](CCCCCC)(CCCCCC)CCCCCC.O=S(=O)([N-]S(=O)(=O)C(F)(F)F)C(F)(F)F — lower, 0.321 ± 0.034
- CCCCCCCCC [nonane] + CCCCCCCCCCCCCC[P+](CCCCCC)(CCCCCC)CCCCCC.O=S(=O)([N-]S(=O)(=O)C(F)(F)F)C(F)(F)F — higher, 1.6 ± 0.12
- CCCCC [pentane] + CCCCCCCCCCCCCC[P+](CCCCCC)(CCCCCC)CCCCCC.O=S(=O)([N-]S(=O)(=O)C(F)(F)F)C(F)(F)F — within error, 0.96 ± 0.07
- c1ccccc1 [benzene] + CCCCCCCCCCCCCC[P+](CCCCCC)(CCCCCC)CCCCCC.O=S(=O)([N-]S(=O)(=O)C(F)(F)F)C(F)(F)F — lower, 0.391 ± 0.036
- C#CCCC [1-pentyne] + CCCCCCCCCCCCCC[P+](CCCCCC)(CCCCCC)CCCCCC.O=S(=O)([N-]S(=O)(=O)C(F)(F)F)C(F)(F)F — lower, 0.613 ± 0.048
- C#CCCCCCC [1-octyne] + CCCCCCCCCCCCCC[P+](CCCCCC)(CCCCCC)CCCCCC.O=S(=O)([N-]S(=O)(=O)C(F)(F)F)C(F)(F)F — lower, 0.836 ± 0.062
- CC(C)=O [acetone] + CCCCCCCCCCCCCC[P+](CCCCCC)(CCCCCC)CCCCCC.O=S(=O)([N-]S(=O)(=O)C(F)(F)F)C(F)(F)F — lower, 0.297 ± 0.033
- C=CCCC [1-pentene] + CCCCCCCCCCCCCC[P+](CCCCCC)(CCCCCC)CCCCCC.O=S(=O)([N-]S(=O)(=O)C(F)(F)F)C(F)(F)F — lower, 0.806 ± 0.06
- C1CCCC1 [cyclopentane] + CCCCCCCCCCCCCC[P+](CCCCCC)(CCCCCC)CCCCCC.O=S(=O)([N-]S(=O)(=O)C(F)(F)F)C(F)(F)F — lower, 0.687 ± 0.052
- C#CCCCCC [1-heptyne] + CCCCCCCCCCCCCC[P+](CCCCCC)(CCCCCC)CCCCCC.O=S(=O)([N-]S(=O)(=O)C(F)(F)F)C(F)(F)F — lower, 0.726 ± 0.055
- C1CCCCC1 [cyclohexane] + CCCCCCCCCCCCCC[P+](CCCCCC)(CCCCCC)CCCCCC.O=S(=O)([N-]S(=O)(=O)C(F)(F)F)C(F)(F)F — lower, 0.795 ± 0.059

Same assay, conditions: 333.15 K; 101 kPa; Liquid; Chromatography; x1 = 0

Point of comparison: `c1ccccc1` [benzene] + CCCCCCCCCCCCCC[P+](CCCCCC)(CCCCCC)CCCCCC.O=S(=O)([N-]S(=O)(=O)C(F)(F)F)C(F)(F)F, activity coefficient 0.405 ± 0.037. Against it:
- C#CCCCCCCC [1-nonyne] + CCCCCCCCCCCCCC[P+](CCCCCC)(CCCCCC)CCCCCC.O=S(=O)([N-]S(=O)(=O)C(F)(F)F)C(F)(F)F — higher, 0.915 ± 0.067
- C=CCCCC [hex-1-ene] + CCCCCCCCCCCCCC[P+](CCCCCC)(CCCCCC)CCCCCC.O=S(=O)([N-]S(=O)(=O)C(F)(F)F)C(F)(F)F — higher, 0.921 ± 0.067
- CCCCCCCC [octane] + CCCCCCCCCCCCCC[P+](CCCCCC)(CCCCCC)CCCCCC.O=S(=O)([N-]S(=O)(=O)C(F)(F)F)C(F)(F)F — higher, 1.44 ± 0.11
- C1CCCCCC1 [cycloheptane] + CCCCCCCCCCCCCC[P+](CCCCCC)(CCCCCC)CCCCCC.O=S(=O)([N-]S(=O)(=O)C(F)(F)F)C(F)(F)F — higher, 0.881 ± 0.065
- CCCO [propan-1-ol] + CCCCCCCCCCCCCC[P+](CCCCCC)(CCCCCC)CCCCCC.O=S(=O)([N-]S(=O)(=O)C(F)(F)F)C(F)(F)F — higher, 1.15 ± 0.084
- Cc1ccccc1 [toluene] + CCCCCCCCCCCCCC[P+](CCCCCC)(CCCCCC)CCCCCC.O=S(=O)([N-]S(=O)(=O)C(F)(F)F)C(F)(F)F — within error, 0.472 ± 0.04
- CO [methanol] + CCCCCCCCCCCCCC[P+](CCCCCC)(CCCCCC)CCCCCC.O=S(=O)([N-]S(=O)(=O)C(F)(F)F)C(F)(F)F — higher, 1.03 ± 0.074
- CCCCCC [hexane] + CCCCCCCCCCCCCC[P+](CCCCCC)(CCCCCC)CCCCCC.O=S(=O)([N-]S(=O)(=O)C(F)(F)F)C(F)(F)F — higher, 1.11 ± 0.081
- C#CCCCC [1-hexyne] + CCCCCCCCCCCCCC[P+](CCCCCC)(CCCCCC)CCCCCC.O=S(=O)([N-]S(=O)(=O)C(F)(F)F)C(F)(F)F — higher, 0.709 ± 0.054
- C1CCCCCCC1 [cyclooctane] + CCCCCCCCCCCCCC[P+](CCCCCC)(CCCCCC)CCCCCC.O=S(=O)([N-]S(=O)(=O)C(F)(F)F)C(F)(F)F — higher, 0.998 ± 0.072
- CCC(C)=O [butanone] + CCCCCCCCCCCCCC[P+](CCCCCC)(CCCCCC)CCCCCC.O=S(=O)([N-]S(=O)(=O)C(F)(F)F)C(F)(F)F — lower, 0.309 ± 0.033
- C=CCCCCC [1-heptene] + CCCCCCCCCCCCCC[P+](CCCCCC)(CCCCCC)CCCCCC.O=S(=O)([N-]S(=O)(=O)C(F)(F)F)C(F)(F)F — higher, 1.06 ± 0.077
- CCCCCCCCC [nonane] + CCCCCCCCCCCCCC[P+](CCCCCC)(CCCCCC)CCCCCC.O=S(=O)([N-]S(=O)(=O)C(F)(F)F)C(F)(F)F — higher, 1.67 ± 0.13
- CCCCC [pentane] + CCCCCCCCCCCCCC[P+](CCCCCC)(CCCCCC)CCCCCC.O=S(=O)([N-]S(=O)(=O)C(F)(F)F)C(F)(F)F — higher, 0.978 ± 0.071
- C#CCCC [1-pentyne] + CCCCCCCCCCCCCC[P+](CCCCCC)(CCCCCC)CCCCCC.O=S(=O)([N-]S(=O)(=O)C(F)(F)F)C(F)(F)F — higher, 0.636 ± 0.049
- C#CCCCCCC [1-octyne] + CCCCCCCCCCCCCC[P+](CCCCCC)(CCCCCC)CCCCCC.O=S(=O)([N-]S(=O)(=O)C(F)(F)F)C(F)(F)F — higher, 0.865 ± 0.063
- CC(C)=O [acetone] + CCCCCCCCCCCCCC[P+](CCCCCC)(CCCCCC)CCCCCC.O=S(=O)([N-]S(=O)(=O)C(F)(F)F)C(F)(F)F — lower, 0.327 ± 0.034
- C=CCCC [1-pentene] + CCCCCCCCCCCCCC[P+](CCCCCC)(CCCCCC)CCCCCC.O=S(=O)([N-]S(=O)(=O)C(F)(F)F)C(F)(F)F — higher, 0.824 ± 0.061
- C1CCCC1 [cyclopentane] + CCCCCCCCCCCCCC[P+](CCCCCC)(CCCCCC)CCCCCC.O=S(=O)([N-]S(=O)(=O)C(F)(F)F)C(F)(F)F — higher, 0.698 ± 0.053
- C#CCCCCC [1-heptyne] + CCCCCCCCCCCCCC[P+](CCCCCC)(CCCCCC)CCCCCC.O=S(=O)([N-]S(=O)(=O)C(F)(F)F)C(F)(F)F — higher, 0.749 ± 0.056

Reference: the NIST ThermoML archive (doi:10.1016/j.jct.2013.05.030)
